Measurements as given in patent publication US11357756B2, “Anesthetic compositions and methods comprising imidazoline compounds” (Warsaw Orthopedic, Inc., priority 2017, dated 2022).
Entries after “also recorded” stand apart in the source; their conditions may differ. Structures can show the parent of a compound that is named as a salt.

Assays:
sciatic nerve [1] = assay: Evoked compound action potentials (CAP), ipsilateral sciatic nerve after intraneural injection; assay type: in vivo, male Sprague Dawley (SD) rats; settings: for effect of yohimbine pre-administration on elimination of evoked sciatic action potentials by clonidine: 1 mg yohimbine SQ 5 minutes prior to 500 μg intraneural clonidine, HCL
Text: (§1) It is noted that alpha 2 adrenergic receptors are not expressed along the peripheral axons of the nerve. They are on nerve endings and in the spinal cord, where peripheral nerves synapse with interneurons in the dorsal horn. There also may be receptor-mediated effects on immunoinflammatory cells. […] However, there was no effect on the left sciatic nerve.
2 m Amp stimulation in the ankle causes the action potential to propagate up to the tibial nerves and then the sciatic nerve to the dorsal horn of the spinal cord in the rat model.
(§2) Methods: Peripheral nerve function was assessed by evoked action potentials (sciatic nerve) as well as spinal somatosensory evoked potentials in male Sprague Dawley (SD) rats. The tibial nerve was stimulated with 10 milliamperes (mA) constant current delivered with platinum micro-electrodes placed proximal to the internal ankle. Recording electrodes were placed near the proximal sciatic nerve at the sciatic notch (ipsilateral and contralateral nerves) and over the L5 interlaminar space. Measurements were obtained with a Biopac MP36 amplifier and data acquisition unit (Biopac Systems, Goleta, Cal). Following collection of baseline data, test solutions were administered directly into the subparaneural compartment of the right sciatic nerve, approximately 0.5 cm proximal to the tibial/fibular bifurcation, using a Hamilton HPLC injection syringe (20 μl, injection volume). Saline served as the negative control and commercial 2% lidocaine for injection served as the positive control.
(§3) FIG. 21 depicts representative compound action potential traces (CAP), sciatic nerve. A stimulating electrode delivered 10 mAMP current to the distal tibial nerve near the internal ankle, and a recording electrode was placed near the proximal sciatic nerve (at the sciatic notch). Following baseline recordings (top row), test solution was injected directly into the sciatic nerve (20 μl volume). Evoked compound action potentials at 3 minutes and approximately 50 minutes post-injection appear in the middle and bottom rows, respectively.

sciatic nerve [2] = assay: Spinal somatosensory evoked potentials (SSEP) after intraneural sciatic injection; assay type: in vivo, male Sprague Dawley (SD) rats
Description: as §2

incisional pain model = settings: no temporal relationship to systemic exposure; cited from earlier work
[3] = tested on: contralateral sciatic nerve; assay: Evoked action potentials, contralateral sciatic nerve; assay type: in vivo, male Sprague Dawley (SD) rats
Description: as §1, §2, §3

[4] = intraneural injection, 20 μl, 4 parameter non-linear regression
[5] = commercial 2% lidocaine for injection, 20 μl intraneural

COC(=O)[C@@H]1[C@H]2C[C@H]3c4[nH]c5ccccc5c4CCN3C[C@@H]2CC[C@@H]1O [yohimbine HCL]
effect of yohimbine pre-administration on elimination of evoked sciatic action potentials by clonidine (sciatic nerve [1]): unaffected; also recorded: no effect | effect of yohimbine pre-administration on elimination of evoked sciatic action potentials by clonidine (sciatic nerve [1]; listed as yohimbine): no effect | effect of yohimbine pre-administration on sciatic nerve block duration by clonidine (sciatic nerve [1]; pre-administration t=(−)10 minutes): did not inhibit | effect of yohimbine pre-administration on reduction in spinal SEP amplitude by clonidine (sciatic nerve [2]; 1 mg yohimbine prior to 500 μg intraneural clonidine): no effect

Clc1cccc(Cl)c1N=C1NCCN1 [clonidine, 2,6-dichloro-N-2-imidazolidinyldenebenzenamine]
effect on CAP amplitude (sciatic nerve [1]; 50 μg intraneural): no discernable effect | time through which sciatic evoked potential amplitude differed from control (p<0.05) (sciatic nerve [1]; 100 μg): 7 min | effect on action potential (CAP) amplitude (sciatic nerve [1]; 100 μg intraneural, versus control, 3 minutes): significant reduction; also recorded: significantly blunted | time through which sciatic evoked potential amplitude differed from control (p<0.05) (sciatic nerve [1]; 200 μg): 18 min | effect on action potential (CAP) amplitude (sciatic nerve [1]; 200 μg intraneural): significantly greater reduction | effect on action potential (CAP) amplitude (sciatic nerve [1]; 200 μg intraneural, listed as clonidine HCL): virtually eliminated | time through which sciatic evoked potential amplitude differed from control (p<0.05) (sciatic nerve [1]; 500 μg): 35 min | effect on compound action potentials in the ipsilateral sciatic nerve (sciatic nerve [1]; 500 μg intraneural): reliably eliminated | doses at which an anesthetic like effect was observed (sciatic nerve [1]; Example 1, clinically relevant doses): < 100 µg | dose injected directly into nerve that eliminates the action potential (sciatic nerve [1]; Example 2, 2 m Amp stimulation in the ankle): ≥ 50 µg | duration of effect (sciatic nerve [1]; Example 2, 500 mcg lasts a lot longer than 50 mcg): proportional to dose | nerve conduction velocity as nerve fibers return to function (sciatic nerve [1]; higher doses): approximately normal | effect on propagation of action potentials, right sciatic nerve (sciatic nerve [1]; injected directly into the right sciatic nerve of the rat (Example 1)): blocked the ability of the nerve to propagate action potentials to the spinal cord | EC50 for evoked compound action potentials in the sciatic nerve (sciatic nerve [1]; [4]): 71 µg | effect on nerve conduction velocity (ipsilateral sciatic nerve) (sciatic nerve [1]; lower doses, fibers that continue to propagate action potentials): modest | skin concentrations associated with analgesic effect (incisional pain model): ≥ 10 ng/g | effect on the contralateral sciatic nerve ([3]; 500 μg intraneural): no effect | effect on the contralateral sciatic nerve ([3]; any dose of clonidine (50-500 μg), including spinal recordings following contralateral stimulation): not affected | effect on the left sciatic nerve ([3]; injected into the right sciatic nerve (Example 1)): no effect | animals in which spinal somatosensory evoked potentials were eliminated (sciatic nerve [2]; 500 μg intraneural): 3 out of 4 | EC50 for spinal somatosensory evoked potentials (sciatic nerve [2]; [4]): 118 µg

CCN(CC)CC(=O)Nc1c(C)cccc1C [lidocaine]
time through which sciatic evoked potential amplitude differed from control (p<0.05) (sciatic nerve [1]; 2% lidocaine): 35 min | time for which compound action potentials in the ipsilateral sciatic nerve and spine were eliminated (sciatic nerve [1]; [5]): > 20 min | time over which nerve function recovered (sciatic nerve [1]; positive control 2% lidocaine (Example 1)): approximately one hour | effect on the contralateral sciatic nerve [3, 5]: did not affect
